{"source": "paper PMC3299889", "about": "(Analytical Biochemistry, 2012)", "type_in_all_cases": "biochemical", "key": {"SARS-CoV 3CLpro": {"target": "SARS-CoV 3CLpro (Severe acute respiratory syndrome coronavirus, UniProt P0C6X7)"}, "HCV NS3/4A": {"target": "HCV NS3/4A (Hepatitis C virus genotype 1a, UniProt P27958)", "sequence (P27958 1027-1657)": "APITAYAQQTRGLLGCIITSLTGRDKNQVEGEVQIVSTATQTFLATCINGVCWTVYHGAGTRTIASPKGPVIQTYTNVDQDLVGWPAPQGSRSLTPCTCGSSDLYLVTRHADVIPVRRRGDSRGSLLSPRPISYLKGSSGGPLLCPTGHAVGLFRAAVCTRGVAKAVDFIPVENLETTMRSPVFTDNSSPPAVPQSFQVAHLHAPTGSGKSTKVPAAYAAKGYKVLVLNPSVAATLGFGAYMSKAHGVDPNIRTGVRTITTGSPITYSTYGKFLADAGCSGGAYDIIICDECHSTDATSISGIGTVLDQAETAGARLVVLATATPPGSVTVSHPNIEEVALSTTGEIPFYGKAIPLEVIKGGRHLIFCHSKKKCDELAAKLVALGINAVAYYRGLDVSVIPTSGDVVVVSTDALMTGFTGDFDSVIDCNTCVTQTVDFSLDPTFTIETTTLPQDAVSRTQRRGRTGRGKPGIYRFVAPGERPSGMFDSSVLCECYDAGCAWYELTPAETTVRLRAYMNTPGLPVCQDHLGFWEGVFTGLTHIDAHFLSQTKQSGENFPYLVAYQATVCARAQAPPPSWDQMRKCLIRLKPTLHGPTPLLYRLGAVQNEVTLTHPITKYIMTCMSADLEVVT", "sequence (P27958 1658-1711 partner limits assumed)": "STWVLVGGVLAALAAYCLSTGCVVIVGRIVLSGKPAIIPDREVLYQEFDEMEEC"}, "SARS-CoV PLpro": {"target": "SARS-CoV PLpro (Severe acute respiratory syndrome coronavirus, UniProt P0C6X7)"}}}
{"compound": "O[C@@H](CS)[C@@H](O)CS", "note": "(racemic) [DTT, dithiothreitol]", "values": [{"measurement": "Vmax", "setting": "SARS-CoV 3CLpro", "result": "435 ± 12", "unit": "RFU/10 min"}, {"measurement": "Vmax", "setting": "HCV NS3/4A", "result": "181 ± 21", "unit": "RFU/10 min"}, {"measurement": "change of enzyme efficiency (Kcat/KM)", "setting": "HCV NS3/4A", "result": 1.6, "unit": "fold"}, {"measurement": "Vmax", "setting": "SARS-CoV PLpro", "result": "813 ± 36", "unit": "RFU/10 min"}, {"measurement": "increase of KM", "setting": "SARS-CoV PLpro", "result": 4, "unit": "fold"}]}
{"compound": "N[C@@H](CCC(=O)N[C@@H](CS)C(=O)NCC(=O)O)C(=O)O", "note": "[GSH, reduced glutathione]", "values": [{"measurement": "Kcat/KM ratio", "setting": "SARS-CoV 3CLpro", "result": 1.2}, {"measurement": "Km", "setting": "SARS-CoV 3CLpro", "result": "16.1 ± 0.8", "unit": "µM"}, {"measurement": "Vmax", "setting": "SARS-CoV 3CLpro", "result": "516 ± 9", "unit": "RFU/10 min"}, {"measurement": "Kcat/KM ratio", "setting": "HCV NS3/4A", "result": 1.5}, {"measurement": "Vmax", "setting": "HCV NS3/4A", "result": "151 ± 8", "unit": "RFU/10 min"}, {"measurement": "Kcat/KM ratio", "setting": "SARS-CoV PLpro", "result": 1.0}, {"measurement": "Vmax", "setting": "SARS-CoV PLpro", "result": "449 ± 14", "unit": "RFU/10 min"}, {"measurement": "increase of KM", "setting": "SARS-CoV PLpro", "result": 1.5, "unit": "fold"}]}
{"compound": "O=C(O)CCP(CCC(=O)O)CCC(=O)O", "note": "[TCEP, tris(2-carboxyethyl)phosphine]", "values": [{"measurement": "Vmax", "setting": "SARS-CoV 3CLpro", "result": "472 ± 18", "unit": "RFU/10 min"}, {"measurement": "Kcat/KM ratio", "setting": "HCV NS3/4A", "result": 0.5}, {"measurement": "Vmax", "setting": "HCV NS3/4A", "result": "75 ± 15", "unit": "RFU/10 min"}, {"measurement": "Vmax", "setting": "SARS-CoV PLpro", "result": "441 ± 41", "unit": "RFU/10 min"}, {"measurement": "increase of KM", "setting": "SARS-CoV PLpro", "result": 2.5, "unit": "fold"}]}
{"compound": "OCCS", "note": "[β-MCE, β-mercaptoethanol]", "values": [{"measurement": "Kcat/KM ratio", "setting": "SARS-CoV 3CLpro", "result": 1.2}, {"measurement": "Km", "setting": "SARS-CoV 3CLpro", "result": "14.8 ± 1.2", "unit": "µM"}, {"measurement": "Vmax", "setting": "SARS-CoV 3CLpro", "result": "453 ± 24", "unit": "RFU/10 min"}, {"measurement": "Kcat/KM ratio", "setting": "HCV NS3/4A", "result": 1.4}, {"measurement": "Km", "setting": "HCV NS3/4A", "result": "2.5 ± 0.1", "unit": "µM"}, {"measurement": "Vmax", "setting": "HCV NS3/4A", "result": "161 ± 8", "unit": "RFU/10 min"}, {"measurement": "Kcat/KM ratio", "setting": "SARS-CoV PLpro", "result": 1.2}, {"measurement": "Km", "setting": "SARS-CoV PLpro", "result": "117 ± 7", "unit": "µM"}, {"measurement": "Vmax", "setting": "SARS-CoV PLpro", "result": "438 ± 30", "unit": "RFU/10 min"}]}
